According to article PMC6277767, “Broad and Region-Specific Impacts of the Synthetic Cannabinoid CP 55,940 in Adolescent and Adult Female Mouse Brains” (Frontiers in Molecular Neuroscience, 2018):

System: CD1 female mouse brain lipidome
Assay: Brain-region lipid levels (HPLC/MS/MS lipidomics) 2 h after single i.p. 3 mg/kg CP 55,940 vs vehicle
Type: in vivo
Protocol: The Bloomington Institutional Animal Care and Use Committee of Indiana University reviewed and approved the animal procedures. Female mice from the CD1 strain were utilized to match our study examining THC’s effects on the brain lipidome ([Leishman et al., 2018]). Mice were given a single i.p. injection of either 3 mg/kg CP or 1:1:18 cremophor:ethanol:saline vehicle (please refer to the section “3 mg/kg CP Is Relevant for Synthetic Cannabinoid Abuse and Has Stronger Effects on the Female Mouse Brain Lipidome During Adolescence” for a justification of dose and use of female mice). Three different age groups were given injections: PND 35 and PND 50 adolescents, and adult mice (PND 113). At least eight mice in each age group received CP and at least eight received vehicle. Matching the THC study time course ([Leishman et al., 2018]), mice were sacrificed via rapid decapitation 2 h after injection. Brains were immediately removed and flash-frozen in liquid nitrogen, and then stored at -80°C until dissections were performed. Brains were dissected on an ice-cold dissection plate into the following regions: STR, HIPP, CER, THAL, CTX, HYP, MID, and STEM. These abbreviations for these brain areas will be used exclusively when discussing the results generated by these specific dissections. Each dissected area was immediately placed in liquid nitrogen and then stored at -80°C until used for lipid extraction.
Tissue extracts were performed as previously described ([Bradshaw et al., 2006]; [Stuart et al., 2013]; [Raboune et al., 2014]; [Leishman et al., 2016a],[b], [2017], [2018]). First, samples were shock frozen in liquid nitrogen, weighed, and transferred to a centrifuge tube. The mass of the largest sample was multiplied by 50 to determine how many milliliters of HPLC-grade methanol (Fisher, Fair Lawn, NJ, United States) to add. Then, samples were spiked with 500 pmol deuterium-labeled NAGly (d8NAGly; Cayman Chemical, Ann Arbor, MI, United States). Samples were placed on ice in darkness for 2 h then individually homogenized and centrifuged at 19,000 × g for 20 min at 20°C. Supernatants were diluted with HPLC water (purified in house) to make a solution of 75% water, 25% supernatant. Lipids were partially purified on C18 solid phase extraction columns (Agilent, Palo Alto, CA, United States). A series of four elutions with 1.5 mL of 60%, 75%, 85%, and 100% methanol were collected ([Stuart et al., 2013]; [Leishman et al., 2016a],[b], [2018]).
As previously described ([Bradshaw et al., 2006]; [Tan et al., 2006]; [Smoum et al., 2010]; [Stuart et al., 2013]; [Tortoriello et al., 2013]; [Raboune et al., 2014]; [Leishman et al., 2016a],[b], [2017], [2018]), samples were analyzed using an Applied Biosystems API 3000 triple quadrupole mass spectrometer with electrospray ionization (Foster City, CA, United States). Using an Agilent XDB-C18 reversed phase analytical column and optimized mobile phase gradients, 20 μL from each elution were chromatographed. Two Shimadzu 10ADvp pumps (Columbia, MD, United States) provided the pressure for gradient elution. Mobile phase A: 20% methanol, 80% water (v/v) and 1 mM ammonium acetate (Sigma, St. Louis, MO, United States). Mobile phase B: 100% methanol, 1 mM ammonium acetate. Every method run began with 0% mobile phase B, reached 100% mobile phase B flowing at 0.2 mL/min, and gradually returned to 0% mobile phase B.
This screening library will be referred to as the lipidome when discussing data from this study. HPLC/MS/MS data were analyzed using Analyst software (Applied Biosystems) ([Bradshaw et al., 2006]; [Tan et al., 2006]; [Stuart et al., 2013]; [Tortoriello et al., 2013]; [Raboune et al., 2014]; [Leishman et al., 2016a],[b], [2017], [2018]). Chromatograms (Supplementary Figure 3) were generated by determining the retention time of analytes from the analytical column with a [M-1] or [M+1] parent peak and a fragmentation peak corresponding to the programmed values. […]

[1] = adult brainstem, 3mg/kg CP 55,940
[2] = adult cortex, 3 mg/kg CP 55,940, p .004
[3] = adult cortex, 3 mg/kg CP 55,940, p .008
[4] = adult cortex, 3 mg/kg CP 55,940, p .028
[5] = adult cortex, 3 mg/kg CP 55,940, p .055
[6] = adult cortex, 3 mg/kg CP 55,940, p .057
[7] = adult cortex, 3 mg/kg CP 55,940, p .077
[8] = adult cortex, 3 mg/kg CP 55,940, p .086
[9] = adult cortex, 3 mg/kg CP 55,940, p .090
[10] = adult female mice, brainstem, 3mg/kg CP 55,940

Structure (SMILES): CCCCCCC(C)(C)c1ccc([C@@H]2C[C@H](O)CC[C@H]2CCCO)c(O)c1 [CP 55,940]
- N-docosahexaenoyl alanine level, Mean [1]: 3.28E-13
- N-docosahexaenoyl ethanolamine level, Mean [1]: 2.85E-11
- N-docosahexaenoyl glycine level, Mean [1]: 5.52E-13
- N-docosahexaenoyl phenylalanine level, Mean [1]: 3.64E-14
- N-linoleoyl GABA level, Mean [1]: 6.22E-12
- N-linoleoyl alanine level, Mean [1]: 2E-13
- N-linoleoyl ethanolamine level, Mean [1]: 8.37E-12
- N-linoleoyl glycine level, Mean [1]: 1.41E-13
- N-linoleoyl methionine level, Mean [1]: BDL
- N-oleoyl GABA level, Mean [1]: 1.65E-11
- N-oleoyl alanine level, Mean [1]: 3.26E-12
- N-oleoyl dopamine level, Mean [1]: BDL
- N-oleoyl ethanolamine level, Mean [1]: 2.44E-10
- N-oleoyl ethanolamine, Direction (relative to Veh) [1]: ↓
- N-oleoyl ethanolamine, Magnitude (x Veh level) [1]: 0.76 x Veh level
- N-oleoyl glycine level, Mean [1]: 2.1E-12
- N-oleoyl leucine level, Mean [1]: 2E-12
- N-oleoyl methionine level, Mean [1]: 4.11E-13
- N-oleoyl phenylalanine level, Mean [1]: 4.28E-13
- N-palmitoyl GABA level, Mean [1]: 1.95E-11
- N-palmitoyl alanine level, Mean [1]: 3.16E-12
- N-palmitoyl ethanolamine level, Mean [1]: 8.74E-11
- N-palmitoyl glycine level, Mean [1]: 2.79E-12
- N-palmitoyl leucine level, Mean [1]: 3.05E-12
- N-palmitoyl leucine, Direction (relative to Veh) [1]: ↑
- N-palmitoyl leucine, Magnitude (x Veh level) [1]: 1.30 x Veh level
- N-palmitoyl methionine level, Mean [1]: 5.07E-12
- N-palmitoyl phenylalanine level, Mean [1]: 2.38E-13
- N-palmitoyl valine Direction (relative to Veh) [1]: ↑
- N-palmitoyl valine Magnitude (x Veh level) [1]: 1.43 x Veh level
- N-stearoyl GABA level, Mean [1]: 1.37E-11
- N-stearoyl alanine level, Mean [1]: 5.4E-12
- N-stearoyl ethanolamine level, Mean [1]: 3.01E-11
- N-stearoyl glycine level, Mean [1]: 4.95E-12
- N-stearoyl leucine level, Mean [1]: 1.96E-12
- N-stearoyl methionine level, Mean [1]: 4.69E-13
- N-stearoyl phenylalanine level, Mean [1]: 1.53E-13
- Oleic acid, Direction (relative to Veh) [1]: ↓
- Oleic acid, Magnitude (x Veh level) [1]: 0.80 x Veh level
- PGE2 Direction (relative to Veh) [1]: ↓
- PGE2 Magnitude (x Veh level) [1]: 0.87 x Veh level
- 2-arachidonoyl glycerol level, Mean (adult cortex, 3mg/kg CP 55,940): 3.28E-09
- 2-linoleoyl glycerol level, Mean (adult cortex, 3mg/kg CP 55,940): 1.48E-10
- 2-oleoyl glycerol level, Mean (adult cortex, 3mg/kg CP 55,940): 1.56E-09
- 2-palmitoyl glycerol level, Mean (adult cortex, 3mg/kg CP 55,940): 8.13E-11
- 6-ketoPGF1α level, Mean (adult cortex, 3mg/kg CP 55,940): 1.5E-11
- 11-OH-THC level, Mean (adult cortex, 3mg/kg CP 55,940): BDL
- 11-nor-9-carboxyTHC level, Mean (adult cortex, 3mg/kg CP 55,940): BDL
- Arachidonic acid level, Mean (adult cortex, 3mg/kg CP 55,940): 9.03E-10
- Cannabidiol level, Mean (adult cortex, 3mg/kg CP 55,940): BDL
- Linoleic acid level, Mean (adult cortex, 3mg/kg CP 55,940): 5.34E-10
- N- stearoyl valine level, Mean (adult cortex, 3mg/kg CP 55,940): 2.51E-14
- N-arachidonoyl proline level, Mean (adult cortex, 3mg/kg CP 55,940): BDL
- N-arachidonoyl taurine level, Mean (adult cortex, 3mg/kg CP 55,940): 8.95E-11
- N-arachidonoyl tryptophan level, Mean (adult cortex, 3mg/kg CP 55,940): BDL
- N-arachidonoyl tyrosine level, Mean (adult cortex, 3mg/kg CP 55,940): 6.06E-13
- N-docosahexaenoyl proline level, Mean (adult cortex, 3mg/kg CP 55,940): BDL
- N-docosahexaenoyl tryptophan level, Mean (adult cortex, 3mg/kg CP 55,940): BDL
- N-docosahexaenoyl tyrosine level, Mean (adult cortex, 3mg/kg CP 55,940): 3.81E-13
- N-linoleoyl proline level, Mean (adult cortex, 3mg/kg CP 55,940): BDL
- N-linoleoyl serine level, Mean (adult cortex, 3mg/kg CP 55,940): 1.53E-11
- N-linoleoyl tryptophan level, Mean (adult cortex, 3mg/kg CP 55,940): BDL
- N-linoleoyl tyrosine level, Mean (adult cortex, 3mg/kg CP 55,940): BDL
- N-nervonoyl valine level, Mean (adult cortex, 3mg/kg CP 55,940): BDL
- N-oleoyl proline level, Mean (adult cortex, 3mg/kg CP 55,940): BDL
- N-oleoyl serine level, Mean (adult cortex, 3mg/kg CP 55,940): 8.25E-11
- N-oleoyl tryptophan level, Mean (adult cortex, 3mg/kg CP 55,940): BDL
- N-oleoyl tyrosine level, Mean (adult cortex, 3mg/kg CP 55,940): 3.46E-13
- N-oleoyl valine level, Mean (adult cortex, 3mg/kg CP 55,940): 1.3E-14
- N-palmitoyl proline level, Mean (adult cortex, 3mg/kg CP 55,940): BDL
- N-palmitoyl serine level, Mean (adult cortex, 3mg/kg CP 55,940): 6.45E-12
- N-palmitoyl tryptophan level, Mean (adult cortex, 3mg/kg CP 55,940): BDL
- N-palmitoyl tyrosine level, Mean (adult cortex, 3mg/kg CP 55,940): 7.95E-13
- N-palmitoyl valine level, Mean (adult cortex, 3mg/kg CP 55,940): 1.13E-13
- N-stearoyl proline level, Mean (adult cortex, 3mg/kg CP 55,940): BDL
- N-stearoyl serine level, Mean (adult cortex, 3mg/kg CP 55,940): 9.84E-12
- N-stearoyl tryptophan level, Mean (adult cortex, 3mg/kg CP 55,940): BDL
- N-stearoyl tyrosine level, Mean (adult cortex, 3mg/kg CP 55,940): 1.21E-13
- Oleic acid level, Mean (adult cortex, 3mg/kg CP 55,940): 4.6E-10
- PGE2 level, Mean (adult cortex, 3mg/kg CP 55,940): 3.08E-10
- PhosphoLEA level, Mean (adult cortex, 3mg/kg CP 55,940): 1.8E-12
- THC level, Mean (adult cortex, 3mg/kg CP 55,940): BDL
- 6-ketoPGF1α Direction (relative to Veh) [2]: ↓
- 6-ketoPGF1α Magnitude (x Veh level) [2]: 0.68
- N-palmitoyl valine Direction (relative to Veh) [3]: ↑
- N-palmitoyl valine Magnitude (x Veh level) [3]: 1.49
- PGF2α Direction (relative to Veh) [4]: ↓
- PGF2α Magnitude (x Veh level) [4]: 0.89
- N-linoleoyl GABA Direction (relative to Veh) [5]: ↓
- N-linoleoyl GABA Magnitude (x Veh level) [5]: 0.86
- N-stearoyl phenylalanine, Direction (relative to Veh) [6]: ↓
- N-stearoyl phenylalanine, Magnitude (x Veh level) [6]: 0.66
- Arachidonic acid, Direction (relative to Veh) [7]: ↓
- Arachidonic acid, Magnitude (x Veh level) [7]: 0.86
- N-arachidonoyl taurine Direction (relative to Veh) [8]: ↓
- N-arachidonoyl taurine Magnitude (x Veh level) [8]: 0.93
- 2-linoleoyl glycerol Direction (relative to Veh) [9]: ↓
- 2-linoleoyl glycerol Magnitude (x Veh level) [9]: 0.76
- 2-arachidonoyl glycerol level, Mean [10]: 4.32E-09
- 2-linoleoyl glycerol level, Mean [10]: 2.54E-10
- 2-oleoyl glycerol level, Mean [10]: 3.17E-09
- 2-palmitoyl glycerol level, Mean [10]: 3.83E-11
